# Assay results published in the METLIN SMRT retention time set (Domingo-Almenara et al. 2019).
# Test: gradient 5% acetonitrile 3 min, to 50% in 2 min, to 85% in 15 min, held 3 min, 100 µL/min
# Conditions: column: Zorbax Extend-C18 2.1 x 50 mm; eluents: water / acetonitrile, 0.1% formic acid
# Outline: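 Retention times come from adduct peaks that were picked computationally and then checked by hand. The standards, pure and pooled in mixtures of ~100 molecules, were run on a Zorbax Extend-C18 column (2.1 × 50 mm, 1.8 μm) at 100 μL/min with water and acetonitrile, each with 0.1% formic acid. Detection was by quadrupole time-of-flight mass spectrometry in positive and negative ionization mode, with a dead volume of 40 μL and a dwell volume of 900 μL.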
row,SMILES,RP-LC retention time [s]
1,O=S(=O)(c1ccc2nc(N3CCN(c4ccccc4F)CC3)ccc2c1)N1CCCC1,998
2,CCc1ccc(NC(=O)C2CCCN2S(=O)(=O)c2ccc3c(c2)CCCC(=O)N3)cc1 (stereo not drawn),835
3,Cc1noc(-c2cccc(OC3CN(C(=O)c4sccc4C)C3)c2)n1,900
4,CCc1nc(N)n(CC(=O)Nc2ccccc2F)c(=O)c1C,599
5,CCSC1=C(C#N)C(c2ccccc2Cl)C(C(=O)Nc2ccccc2C)=C(C)N1 (stereo not drawn),862
6,COc1ccc(NC(=O)Cn2nc3n(c2=O)CCCC3)cc1,634
7,COc1cccc(CN2CCn3c(nnc3[C@@H]3C[C@@H](O)CN3C)C2)c1OC,549
8,CCS(=O)(=O)N1[C@H]2CC[C@@H]1c1cnc(-c3ccc(F)cc3)nc1C2,945
9,CC(C)n1nc(CNC(=O)c2ccc(F)c(F)c2)c2ccccc21,962
10,Cc1ccc(-n2ncc3c(=O)n(Cc4nc(-c5cccc(C(F)(F)F)c5)no4)cnc32)cc1,1180
11,Cc1cc(N2CCCCC2)n2nc(CN3CCC4(CC3)OCCO4)nc2n1,580
12,COc1cccc(-n2c(=O)c3sccc3n(Cc3nc(-c4ccccc4C)no3)c2=O)c1,1000
13,CC(C)n1c(=O)c(NCc2ccc(F)cc2)nc2ccncc21,669
14,CC(NC(=O)c1ccc2c(c1)OCO2)C(=O)N1CCN(c2ccccn2)CC1 (stereo not drawn),580
15,CCc1ccc(S(=O)(=O)N2c3ccccc3CC2c2nnc(C3CCOCC3)o2)cc1 (stereo not drawn),948
16,CCOC(=O)c1cc(S(=O)(=O)N2CC3CC(C2)c2cccc(=O)n2C3)cn1C (stereo not drawn),704
17,CCC(=O)N1CCN(c2nc3c(s2)CC(C(=O)NCc2cc(F)ccc2F)CC3)CC1 (stereo not drawn),601
18,O=C(Nc1nnc(SCc2nnc(-c3ccccc3)o2)s1)c1ccccc1,866
19,COC(=O)c1ccc(CN2CC(=O)N3CCCC3C2=O)cc1 (stereo not drawn),616

row,SMILES,RP-LC retention time [s]
1,CCN1C=C(C(=O)OCc2ccccc2Cl)C(C)=NS1(=O)=O,1010
2,Cc1nc(-c2cccc(NC(=O)CCCn3cnc(-c4ccc(F)cc4)cc3=O)c2)cs1,768
3,COc1ccc(Cn2nnc(C(=O)NCC3CC3)c2-n2cccc2)cc1,924
4,CCC(CC)C(=O)N1CCc2[nH]nc(C(=O)NCCCc3ccccc3)c2C1,797
5,Cc1noc(-c2cc(=O)n(CC(=O)Nc3ccccc3Cl)c3ccccc23)n1,900
6,COc1cccc(S(=O)(=O)N2CCC(c3noc(-c4ccccn4)n3)C2)c1 (stereo not drawn),774
7,CC(=O)c1ccc(NC(=O)CCSc2ccc(Cl)cc2)cc1,887
8,O=C(Cn1cccc1-c1nc(-c2ccc3c(c2)OCO3)no1)Nc1ccccc1Cl,1100
9,CC1CCCCN1CCNC(=O)c1cc(=O)n2c(nc3ccccc32)s1 (stereo not drawn),626
10,O=C(C1CCN(c2ncnc3c2oc2ccccc23)CC1)N1CCN(c2ccccc2)CC1,795
11,CCn1c(C)c(CCC(=O)Nc2ccc(C)c(C)c2)c(=O)n2nc(-c3ccccc3)nc12,935
12,COCCCNS(=O)(=O)c1cc(-c2[nH]ncc2C(=O)N2CCCCC2)oc1C,646
13,O=C(Cc1nc(-c2ccccn2)n[nH]1)Nc1cc(F)ccc1F,652
14,Cc1cc(=O)n(CC(=O)N2CCc3ccccc32)c(N2CCCC2)n1,664
15,c1ccc(CN2CCN(c3ncccc3-c3nc(-c4ccccc4)no3)CC2)cc1,769
16,COc1cccc(-c2nc(NCc3cccnc3)ncc2C(=O)O)c1,576
17,COc1ccc(S(=O)(=O)N2CCCC(C(=O)NC3CCCC3)C2)cc1C (stereo not drawn),901
18,Cc1cc(N2CCC(NC(=O)Nc3cccc(Cl)c3F)C2=O)ccc1F (stereo not drawn),945
19,CCOC(=O)c1noc2ncnc(N3CCCc4ccccc43)c12,988

row,SMILES,RP-LC retention time [s]
1,Cc1nn(-c2ccc(-c3ccccc3)nn2)c(C)c1S(=O)(=O)N1CCN(c2ccccn2)CC1,776
2,CCOc1cccc(CN2Cc3ccccc3OC3(CCN(CCOC)CC3)C2)c1,619
3,Cc1cccc(C(=O)N2C(C(=O)NCC3CCCO3)COC23CCN(C(=O)C(C)(C)C)CC3)c1 (stereo not drawn),684
4,c1ccc2sc(N3CCN(Cc4ccc5c(c4)OCO5)CC3)nc2c1,731
5,CCc1nc2cc(-c3noc(-c4c(F)cccc4Cl)n3)ccc2o1,1190
6,Cc1cc(C)cc(NC(=O)c2c(O)c3cccnc3n(-c3ccccc3)c2=O)c1,1430
7,O=C(CC1CCCC1)N1CCN(CCn2cccn2)CC1,560
8,Cc1scc2nc(C(=O)NCc3ccc(F)cc3)nc(N(C)C)c12,780
9,COc1ccc2nc(-c3ccc(C)c(NS(=O)(=O)c4cc(C)ccc4OC)c3)cn2n1,812
10,Cc1ccccc1CNC(=O)C1CCCN1S(=O)(=O)c1cc2c(cc1C)NC(=O)C(C)O2 (stereo not drawn),814
11,CC(C)n1cc(S(=O)(=O)Nc2cccc(F)c2)c2cccnc21,877
12,Cc1cnc(C(=O)NC2C[C@H]3CC[C@@H](C2)N3C(=O)c2cc(C)n(C)n2)cn1 (stereo partly drawn),614
13,CC(C)NC(=O)C1Cc2cc(C(F)(F)F)ccc2N2CCN(c3ccccc3)CC12 (stereo not drawn),1100
14,CCOc1ccc(N(C)C(=O)C2CCCN2S(=O)(=O)c2cc(C(=O)OC)n(C)c2)cc1 (stereo not drawn),825
15,O=C(CC1CCN(C(=O)Nc2cccc(Cl)c2)CC1)N1CCN(c2ccccn2)CC1,630
16,COc1ccc(S(=O)(=O)Cc2nc(-c3ccccc3Br)no2)cc1,905
17,Cc1ccc(Nc2c(-c3ccc(C)cc3)nc3ccc(Br)cn23)cc1,849
18,O=C(Nc1cnc(N2CCCC2)nc1)c1ccc(F)c(Cl)c1,804
19,O=C(NC1CCCCCC1)c1csc(-c2ccc(N3CCCC3)nc2)n1,774

# Second part, the molecule after the results:
row,RP-LC retention time [s],SMILES
1,1330,Cc1sc(C)c(S(=O)(=O)N2CCN(c3ccccc3F)CC2)c1-c1cc(C(F)(F)F)on1
2,576,O=C(CCNc1c(-c2ccccc2)nc2cnccn12)NCC1CCCO1 (stereo not drawn)
3,680,Cc1nc(C)c(C(=O)N2CCCCCCNC(=O)[C@@H]3CCC[C@@H]32)s1
4,832,CC(C)CCNC(=O)C1CCN(S(=O)(=O)c2ccc3c(c2)sc(=O)n3C)CC1
5,659,O=C(Cn1cnc2nc(N3CCCC(C(=O)NC4CC4)C3)sc2c1=O)Nc1ccc2c(c1)OCO2 (stereo not drawn)
6,817,Cc1nc2cccnc2n1CC1CCCN(S(=O)(=O)c2ccc(C(C)C)cc2)C1 (stereo not drawn)
7,775,Cc1ccc(-n2cc3c(N4CCCC(C(=O)NCc5ccccc5C(F)(F)F)C4)ncnc3n2)cc1 (stereo not drawn)
8,812,CCOc1ccc(CNC(=O)C2CCCN(c3cc(=O)n(C)c(=O)n3CC)C2)cc1 (stereo not drawn)
9,1060,COc1ccccc1NC(=O)c1sc(-c2cn(C)c3ncccc23)nc1C
10,655,CCOc1ccc(NC(=O)Cn2nc3n(c2=O)CCCC3)cc1
11,657,COc1cc(C(=O)Nc2c(-c3ccc(F)cc3)nc3ccccn23)cc(OC)c1OC
12,1030,CCCn1c(=O)c2cc(C(=O)N3CCN(c4ccccc4)CC3)nn2c2ccccc21
13,713,CC(C)NC(=O)c1nnn(-c2ccccc2)c1-c1cccnc1
14,973,Cc1nn2c(CNS(=O)(=O)c3ccc(Cl)cc3C)c(-c3ccccc3)nc2s1
15,731,COc1ccc(CNC(=O)C2CCN(C(=O)C3Sc4ccccc4NC3=O)CC2)cc1 (stereo not drawn)
16,1010,CCOC(=O)c1cc(S(=O)(=O)N2CCCC2C(=O)Nc2cc(Cl)c(OC)cc2OC)cn1C (stereo not drawn)

row,RP-LC retention time [s],SMILES
1,1210,O=C1COc2ccc(Cl)cc2N1Cc1nc(-c2ccc(OC(F)(F)F)cc2)no1
2,1100,O=C(Cc1ccc(Br)cc1)Nc1nc(-c2ccccc2)cs1
3,908,CCOC(=O)c1cnc(N2CCN(c3ccccc3F)CC2)[nH]c1=O
4,684,NC(=O)c1cn(Cc2c(F)cccc2F)nn1
5,722,Cc1nn(C)cc1S(=O)(=O)Nc1c(C)n(C)n(-c2ccccc2)c1=O
6,610,COC(=O)c1c(C)[nH]c(C(=O)N2CCCC(C(=O)NCCN3CCCCCC3)C2)c1C (stereo not drawn)
7,1090,CC(C)OC(=O)COC(=O)c1cn(-c2ccc(F)cc2)c(=O)c2ccccc12
8,660,Cc1nnc2ccc(N3CCN(C(=O)Cc4cccc5ccccc45)CC3)nn12
9,697,CC(C)n1c(=O)sc2cc(S(=O)(=O)N3CCC(C(=O)Nc4cccc(C#N)c4)CC3)ccc21
10,798,COc1ccc(OC)c(NC(=O)Cn2c(=O)c(CCC(=O)NCC(C)C)nc3ccccc32)c1
11,609,COc1ccc(-c2nc3cnccn3c2NCCC(=O)NC(C)C)cc1
12,871,Cc1noc2nc(C)n(CC(=O)Nc3cccc4c3CCCC4)c(=O)c12
13,672,CC(C)c1nc(C2CN(C(=O)Nc3ccc(F)cc3)C2)n(C)n1
14,838,Cc1ccc(-c2nnc(N3CCC(C(=O)NCc4ccc5c(c4)OCO5)CC3)o2)cc1
15,694,O=C(C1=COCCO1)N1CCN(c2ccccc2)CC1
